Results as given in US20260216109A1, “TREATMENT OF SKIN DISORDERS WITH SHORT CHAIN FATTY ACIDS” (Temple University-Of The Commonwealth System of Higher …, priority 2023, published 2026).

What was measured:
IFN-γ = assay: Multiplex (MSD V-PLEX) cytokine release, InflammaSkin: IFN-γ; type: cell-based, human; details: Example 2; Day 7 supernatant; 1 μM Otezla or SCFA (45 μg/mL Ca-propionate + 1 mM Ca-/Mg-butyrate) systemic, 0.05% Betamethasone topical; vs untreated InflammaSkin
Method: A total of 16 biopsies of 15 mm diameter were produced from a single donor. Two NativeSkin® models with 12/15 mm silicon rings were produced from the biopsies according to standard procedures in place, and cultured under cell culture conditions (37° C., 5% CO2, max. humidity) for 7 days with 2 mL of standard NativeSkin® medium renewed every day. Fourteen PSO-InflammaSkin® models with 12/15 mm silicon rings were produced by inducing in situ activation and Th17/Th1 polarization of skin resident T cells with a proprietary cocktail, and cultured under cell culture conditions (37° C., 5% CO2, max. humidity) for 7 days with 2 mL of PSO-InflammaSkin® culture medium renewed every day. […]
Human pro-inflammatory cytokines released in the supernatant were quantified using the V-PLEX Human IL-17A Kit (MesoScale Discovery, reference: K151RFD-1) and V-PLEX Human custom Pro-inflammatory. […]
Samples were diluted four times for plate 2 and two times for plate 1. Samples and standards were assessed in duplicate. Plates were read on MesoScale Discovery Quickpleax SQ 120 plate reader and values expressed in pg/mL.
A statistical analysis was performed. […] First, the distribution's normality of the two compared group was assessed. […] If the two distributions were normal, the homogeneity of variances was assessed using a Fisher test on the variances. […]

[1] = tested on: imiquimod (IMQ)-induced psoriasis model mice; assay: Back skin scaling, IMQ-induced psoriasis model in mice; type: in vivo, mouse; details: for skin scaling: Example 12
Method: Topical application of IMQ, a TLR7/8 ligand and potent immune activator induced and exacerbated psoriasis in mice. The mouse IMQ-induced psoriasis (IMQ Ps) model was initiated by a repeated topical application of Aldara© cream (containing 5% IMQ) over 6 consecutive days. Female Balb/c mice (9 weeks of age at reception, ordered with 20 g, Charles River, Sulzfeld, Germany; n=10 mice/group, exception healthy controls n=4) received daily a topical application of 62.5 mg of commercially available IMQ cream (5% Aldara©) on the beforehand (day −1) shaved (~2 cm×3 cm), depilated (Pilka© cream) back skin, and 7 mg on the outer right ear skin for 6 consecutive days, translating in a daily dose of approximately 3.5 mg IMQ. Healthy control mice were included in the study and were treated with vehicle cream (Vaseline; Bombastus-Werke AG) only instead of IMQ. Additionally, an IMQ disease control group was also included.
Disease Severity Score was evaluated on a daily base starting with the induction of psoriasis by IMQ application (day 0) until the end (day 6) of the study. The psoriasis severity on the back skin of the mice was evaluated by using a modified scoring system developed by van der Fits et al., based on the clinical PASI (psoriasis area and severity index) and takes skin erythema, scaling and skin thickening into account. Scoring was performed by the same lab technician throughout the experiment. Each parameter was scored independently on a scale from 0 to 3.
Before starting treatment on the day of disease induction (day 0), mice were randomized based on body weight to the respective group. To evaluate the anti-inflammatory efficacy of the two compounds in mouse IMQ psoriasis, mice were treated twice daily ([…] in sterile water; m/m/v) alone, with fixed dose of SCFA (in ddH2O) alone, […] dose of SCFA. Healthy and IMQ disease controls were orally treated in parallel with vehicle only. All treatments started with first application of IMQ on day 0.
Skin scaling, one of the disease severity score parameters, was evaluated in IMQ-treated mice (FIGS. 57-59).

CCOc1cc([C@@H](CS(C)(=O)=O)N2C(=O)c3cccc(NC(C)=O)c3C2=O)ccc1OC [Otezla, Apremilast]
IFN-γ secretion (IFN-γ): significantly reduced
back skin scaling (desquamation) over time ([1]; Example 9, Apremilast 25 mg/kg BID, SCFA fixed dose (120 mg/kg/day Ca-propionate + 1,100 mg/kg/day Ca-/Mg-butyrate), alone or combined, oral): able to inhibit the skin scaling from day 3 to day 5
cumulative evaluation of skin scaling over the entire course of the study ([1]; Example 9, Apremilast 25 mg/kg BID, SCFA fixed dose (120 + 1,100 mg/kg/day), alone or combined, p<0.01): significant and similar beneficial effects
skin scaling ([1]; day 5 and day 6, Apremilast 25 mg/kg BID alone, or combined with fixed dose SCFA (60 + 1,100 mg/kg/day)): significantly inhibited skin scaling on day 5 (p<0.05) and day 6 (p<0.01)
skin scaling ([1]; day 6, fixed dose SCFA alone, Apremilast 12 mg/kg BID alone, or both combined): did not reach significance at day 6
